Assays:
PC12 cells [1] = experiment: Cell survival rate after injection process (LY retaining rate); type: cell-based, rat
Procedure: A cell survival rate after the injection process was compared between cells subjected to the normal microinjection process using the physical shearing force and cells subjected to the photosensitizing microinjection.
The LY was injected into the cell by means of microinjection. In a dead cell with its cell membrane collapsed, the LY disperses quickly to lose its color [Cell, 14, 741-759 (1987)]. Thus, using a rate at which the cell subjected to the injection process holds the LY, as an index indicating the cell survival rate, the survival rates 3 and 6 days after the injection process were compared to each other.
In FIG. 13, the axis of abscissa indicates the number of days passing after the injection process (unit: day), while the axis of ordinate indicates the survival rate (units %).

PC12 cells [2] = experiment: Membrane resistance and membrane potential after light irradiation (patch clamp); type: cell-based, rat
Procedure: Since minute membrane defects must be monitored at a cell level for a period of time in the order of seconds to several minutes including a recovery process, the patch clamp method, which is used for electrophysiological experiments, was used to measure the potential between the cell membranes or ion current transmitted through the cell membrane.
The photosensitizer BAT was dispersed in a HEPES (25 mM, pH 7.4) buffer.
The cells were incubated in a culture medium for electrophysiological experiments at roam temperature. The culture medium used for this experiment was composed of 124 mM of NaCl, 5 mM of KCl, 2.4 mM of CaCl2.2H2O, 1.3 mM of MgSO4.7H2O, and 10 mM of glucose, with a final pH adjusted to 7.4 by addition of NaOH. To prevent the averse effects of evaporation, the culture medium for electrophysiological experiments was replaced with a new at the intervals of 40 minutes at maximum.
The BAT was added so as to have a final Concentration of 49 μM. The quantity of light applied was set at three levels: 0.47 J/cm^2, 0.94 J/cm^2, and 1.57 J/cm^2.
A liquid in the patch electrode was composed of 132 mM of KCl, 8 mM of NaCl, 2 mM of MgCl2, 30 mM of HEPES, 4 mM of Na2ATP, 0.3 mM of GTP, and 0.5 mM of EGTA, with a final pH adjusted to 7.3 by addition of NaOH.
Since a zoom function allows light to be concentrated in an area smaller than a normal area, the amount of light per unit area increases in proportion to the square of a zoom magnification. The excitation light is transmitted through the plastic of the collagen coat dish before actually reaching the cell, so that a decrease in light quantity must actually be taken into consideration.
In irradiating the cell with the excitation light, a TTL signal operating in connection with an electrophysiological record is transmitted to the light source as required to synchronize the light irradiation with electric measurements.
Before starting the electrophysiological experiments, the cell membrane potential had been maintained between −80 and −60 mV.
The cell membrane potential measuring amplifier was Axpopatch 1-D (Axon Instruments). The membrane resistance was calculated from a change in membrane potential occurring when a 1-Hz rectangular-wave overpolarization current flowed through the membrane for 350 milliseconds. The amount of, current supplied (0.1 or 0.15 nA) was selected so that the change in membrane potential would not exceed 30 mV when power was supplied. Under these experimental conditions, the PC12 cell generated no action potential. Measured potential and current values were analyzed using Axoscope ver. 1.1 (manufactured by Axon Instruments).
In FIG. 9, the axis of abscissa indicates an elapsed time (unit: second). The axis of ordinate indicates the resistance of the cell membrane (unit: %) in the upper part and the potential thereof in the lower part, both values being normalized by setting corresponding values prior to irradiation equal to […]. The membrane resistance reflects the ion transmission inhibiting capability, and the membrane potential reflects the active ion transporting capability of the membrane effected by activities of various intermembrane ion transporting systems as well as the ion transmission inhibiting capability.
A microinjection device was connected to a minute glass pipette held in a micromanipulator, and the minute glass pipette was filled with a solution with the photosensitizer BAT dispersed therein (BAT concentration: 2 mM, water solvent). The glass pipette was located in such a manner that its tip was connected to the patch electrode and located within 200 μm from a cell for which the membrane potential and resistance were to be measured.

PC12 cells [3] = experiment: Microinjection success rate (Lucifer Yellow injection) using photosensitized membrane destruction; type: cell-based, rat; details: BAT-containing injection liquid, no light applied, capillary kept in contact with cell, n=30
Procedure: To determine whether the microinjection process was successful, the water-soluble fluorescent pigment Lucifer Yellow CH (LY)was added to an injection liquid. […] Evaluation was made to determine how the success rate of injection of the LY into the cell varied depending on the presence of the photosesirizer BAT in the injection liquid or the presence of application of the BAT exciting light.
To make the microinjection successful, a glass capillary having a diameter of several hundred nanometers at a tip opening thereof must be brought into contact with the cell at a high speed to physically instantaneously penetrate and punch the cell membrane. In the experiments, an electric micromanipulator (manufactured by Eppendorf; Micromanipulator 5171) and an electric injector (manufactured by Eppendorf; Transjector 5246), which can both operate under the control of a program, could be used to set a speed at which the capillary contacted with the membrane, at an arbitrary value. In addition, the injection capillary was a commercially available product (manufactured by Eppendorf; FemtoTips) mass-produced for the above apparatuses. […]

Water solubility = type: physicochemical
Text: A thiophen oligomer having an aminomethyl group at a terminal thereof has a higher water solubility than any other derivative of the same kind due to this terminal aminomethyl group. The water solubility varies depending on how the aminomethyl group is released. […] By irrigating the cell with the BAT-dispersed solution under the above pH condition, this molecule can be easily added to a surface of the cell. The hydrophilic property of the BAT molecule is new and is absent from the other modified thiophen oligomers including an a terthienyl derivative as well as other molecules designed as conductive high-molecular monomers.

[4] = B: 4.94 J/cm^2 light, BAT 49 μM, several seconds after irradiation

Row | SMILES | survival rate (PC12 cells [1]; control examples: normal injection, 3 days after the injection) [%] | cell membrane resistance and membrane potential after light irradiation (PC12 cells [2]; A: 0.47 J/cm^2 light, BAT 49 μM, 363-nm argon ion laser) | cell membrane resistance after light irradiation (PC12 cells [2]; [4]) | membrane potential after light irradiation (PC12 cells [2]; [4]) | cell membrane potential after laser beam (PC12 cells [2]; BAT 2 mM dispersed solution ejected from minute glass pipette onto target cell, laser as in Example 3) | time after light irradiation to loss of membrane resistance and potential (PC12 cells [2]; C: 1.57 J/cm^2 light, BAT 49 μM) | cell membrane resistance and membrane potential after light irradiation (PC12 cells [2]; C: 1.57 J/cm^2 light, BAT 49 μM, then remained at fixed values (irreversible)) | injection success rate (PC12 cells [3]) [%] | water solubility (Water solubility; acid water solution (bivalent positive charge)) | water solubility (Water solubility; water solution with biologically suitable pH range (near 7.4), univalent positive charge type) | cell survival rate (LY retention) (PC12 cells [1]; photosensitizing injection (BAT + light), three to six days after injection)
1 | NNC(=O)NN1C(=O)c2cc(S(=O)(=O)O)cc3c(N)c(S(=O)(=O)O)cc(c23)C1=O [LY, Lucifer Yellow CH, reference compound] | 17 |  |  |  |  |  |  |  |  |  | 
2 | Cl.Cl.NCc1ccc(-c2ccc(-c3ccc(CN)s3)s2)s1 [BAT, 5′5″-bis(aminomethyl)-2,2′:5′2″-terthiophene dihydrochloride] |  | varied slightly but not significantly | decreased | depolarized | depolarized | about 8 seconds | lost | 13 | easily soluble | maintains a high water solubility | about 90%

— US6537800B1, “Apparatus for automatically measuring minute membrane potential” (Center for Advanced Science and Technology Incubation, Ltd., priority 1998, dated 2003)
